For this experiment, the system named is P388 leukemia ip, CD2F1 mice, survival T/C. The experiment can be described thus: NCI In Vivo Anticancer Drug Screen. Data for tumor model P388 Leukemia (intraperitoneal) in CD2F1 (CDF1) mice. As to conditions: endpoint: median survival time, higher = longer survival. In short, it runs like this:
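Mice carrying the transplanted tumor received test compound or vehicle. Survival was recorded in each group, and the value is the treated-group measurement divided by that of the vehicle-treated control group.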

Setting [1] is: dose: 50.0 mg/kg/injection, schedule: Q01DX009 (ip), vehicle: saline with Tween-80.
[2] abbreviates: dose: 100.0 mg/kg/injection, schedule: Q01DX009 (ip), vehicle: saline with Tween-80.
[3] abbreviates: dose: 15.0 mg/kg/injection, schedule: Q01DX005 (ip), vehicle: saline.
Setting [4] is: dose: 30.0 mg/kg/injection, schedule: Q01DX005 (ip), vehicle: saline.
Setting [5] is: dose: 60.0 mg/kg/injection, schedule: Q01DX005 (ip), vehicle: saline.
Setting [6] is: dose: 200.0 mg/kg/injection, schedule: Q01DX009 (ip), vehicle: saline with Tween-80.

Several values for one entry are separate records, joined by “and”; a condition that tells them apart may be missing. Equal values may be shown once. Inconclusive results and toxic doses are left out.

On to `c1cc(-c2cc(-c3cc(-c4ccncc4)n[nH]3)[nH]n2)ccn1`, for which the T/C (dose: 60.0 mg/kg/injection, schedule: Q01DX005 (ip), vehicle: Klucel + Tween-80) is 91 % of control; the T/C (dose: 120.0 mg/kg/injection, schedule: Q01DX005 (ip), vehicle: Klucel + Tween-80) is 100 % of control; the T/C (dose: 240.0 mg/kg/injection, schedule: Q01DX005 (ip), vehicle: Klucel + Tween-80) is 91 % of control.

Regarding `CC(=O)N(Sc1ccccc1)c1ccccc1`, the T/C was 110 % of control (dose: 25.0 mg/kg/injection, schedule: Q01DX009 (ip), vehicle: saline with Tween-80); 106 % of control under setting [1]; 103 % of control under setting [2].

Turning to `Cc1oc(N)c(C(N)=O)c1C`, the T/C is, setting by setting: (dose: 100.0 mg/kg/injection, schedule: Q01DX009 (ip), vehicle: saline sonified) 115 % of control; (dose: 200.0 mg/kg/injection, schedule: Q01DX009 (ip), vehicle: saline sonified) 110 % of control; (dose: 400.0 mg/kg/injection, schedule: Q01DX009 (ip), vehicle: saline sonified) 115 % of control.

For the compound `CC(CC1CCCCC1)NCCC(c1ccccc1)c1ccccc1` (centres undefined), the T/C reads like this: (dose: 12.5 mg/kg/injection, schedule: Q01DX009 (ip), vehicle: Klucel (hydroxypropylcellulose) (HPC)) 116 % of control; (dose: 25.0 mg/kg/injection, schedule: Q01DX009 (ip), vehicle: Klucel (hydroxypropylcellulose) (HPC)) 100 % of control.

For the compound `CC12CCC3(O)C(CCC4C(O)C(=O)CCC43C)C1CCC2=O` (centres undefined), the T/C runs as follows: (dose: 11.25 mg/kg/injection, schedule: Q01DX005 (ip), vehicle: Klucel (hydroxypropylcellulose) (HPC)) 105 % of control; (dose: 22.5 mg/kg/injection, schedule: Q01DX005 (ip), vehicle: Klucel (hydroxypropylcellulose) (HPC)) 100 % of control; (dose: 45.0 mg/kg/injection, schedule: Q01DX005 (ip), vehicle: Klucel (hydroxypropylcellulose) (HPC)) 105 % of control; (dose: 90.0 mg/kg/injection, schedule: Q01DX005 (ip), vehicle: Klucel (hydroxypropylcellulose) (HPC)) 114 % of control; (dose: 180.0 mg/kg/injection, schedule: Q01DX005 (ip), vehicle: Klucel (hydroxypropylcellulose) (HPC)) 98 % of control.

Consider `CC1=Nc2cccnc2N(C)N1C`, for which the T/C runs as follows: under setting [3], 94 % of control; under setting [4], 98 % of control; under setting [5], 98 % of control and 106 % of control.

Consider `O=C(CC1(O)C(=O)Nc2ccc([N+](=O)[O-])cc21)c1ccco1` (centres undefined), for which the T/C reads like this: (dose: 60.0 mg/kg/injection, schedule: Q01DX005 (ip), vehicle: Klucel (hydroxypropylcellulose) (HPC)) 96 % of control; (dose: 120.0 mg/kg/injection, schedule: Q01DX005 (ip), vehicle: Klucel (hydroxypropylcellulose) (HPC)) 100 % of control; (dose: 240.0 mg/kg/injection, schedule: Q01DX005 (ip), vehicle: Klucel (hydroxypropylcellulose) (HPC)) 99 % of control.

For the compound `CCC1SCC(=O)N1c1nncs1` (centres undefined), the T/C reads like this: (dose: 25.0 mg/kg/injection, schedule: Q01DX005 (ip), vehicle: saline with Tween-80) 104 % of control; (dose: 50.0 mg/kg/injection, schedule: Q01DX005 (ip), vehicle: saline with Tween-80) 101 % of control and 102 % of control; (dose: 100.0 mg/kg/injection, schedule: Q01DX005 (ip), vehicle: saline with Tween-80) 102 % of control and 97 % of control; (dose: 200.0 mg/kg/injection, schedule: Q01DX005 (ip), vehicle: saline with Tween-80) 101 % of control.

In the case of `CS(=O)(=O)OCCN(CCOS(C)(=O)=O)c1ccc(N=Nc2ccccc2C(=O)O)cc1`, the T/C was 168 % of control (dose: 0.78 mg/kg/injection, schedule: Q01DX009 (ip), vehicle: Klucel (hydroxypropylcellulose) (HPC)); 187 % of control and 206 % of control (dose: 1.56 mg/kg/injection, schedule: Q01DX009 (ip), vehicle: Klucel (hydroxypropylcellulose) (HPC)); 233 % of control (dose: 3.12 mg/kg/injection, schedule: Q01DX009 (ip), vehicle: Klucel (hydroxypropylcellulose) (HPC)); 242 % of control (dose: 3.13 mg/kg/injection, schedule: Q01DX009 (ip), vehicle: Klucel (hydroxypropylcellulose) (HPC)); 107 % of control and 213 % of control (dose: 6.25 mg/kg/injection, schedule: Q01DX009 (ip), vehicle: Klucel (hydroxypropylcellulose) (HPC)).

Regarding `O=c1sc2ccccc2n1CN(CCO)Cn1c(=O)sc2ccccc21`, the T/C was 91 % of control (dose: 50.0 mg/kg/injection, schedule: Q01DX005 (ip), vehicle: Klucel (hydroxypropylcellulose) (HPC)); 89 % of control (dose: 100.0 mg/kg/injection, schedule: Q01DX005 (ip), vehicle: Klucel (hydroxypropylcellulose) (HPC)); 90 % of control (dose: 200.0 mg/kg/injection, schedule: Q01DX005 (ip), vehicle: Klucel (hydroxypropylcellulose) (HPC)).

With `COC(=O)c1cc2c(s1)C(=O)c1ccccc1-2`, the T/C was 91 % of control under setting [1], 103 % of control under setting [2] and 100 % of control under setting [6].

As for `COc1c2c(cc3ccc(=O)oc13)C=CC(C)(C)O2`, the T/C is 100 % of control (dose: 9.75 mg/kg/injection, schedule: Q01DX005 (ip), vehicle: Klucel (hydroxypropylcellulose) (HPC)); 89 % of control (dose: 19.5 mg/kg/injection, schedule: Q01DX005 (ip), vehicle: Klucel (hydroxypropylcellulose) (HPC)); 100 % of control (dose: 39.0 mg/kg/injection, schedule: Q01DX005 (ip), vehicle: Klucel (hydroxypropylcellulose) (HPC)); 89 % of control (dose: 78.0 mg/kg/injection, schedule: Q01DX005 (ip), vehicle: Klucel (hydroxypropylcellulose) (HPC)).

In the case of `CCC1=CC2CN(CCc3c([nH]c4ccccc34)C(C(=O)OC)(c3cc4c(cc3OC)N(C)C3C(O)(C(=O)OC)C(OC(C)=O)C5(CC)CCCN6CCC43C65)C2)C1` (centres undefined), the T/C is 95 % of control (dose: 0.06 mg/kg/injection, schedule: Q01DX009 (ip), vehicle: water); 94 % of control (dose: 0.13 mg/kg/injection, schedule: Q01DX009 (ip), vehicle: water); 94 % of control (dose: 0.25 mg/kg/injection, schedule: Q01DX009 (ip), vehicle: water); 90 % of control (dose: 0.5 mg/kg/injection, schedule: Q01DX009 (ip), vehicle: water); 100 % of control and 115 % of control (dose: 1.0 mg/kg/injection, schedule: Q01DX001 (ip), vehicle: water); 90 % of control (dose: 1.0 mg/kg/injection, schedule: Q01DX009 (ip), vehicle: water). Besides, the T/C is, setting by setting: (dose: 2.0 mg/kg/injection, schedule: Q01DX001 (ip), vehicle: water) 107 % of control and 100 % of control; (dose: 2.0 mg/kg/injection, schedule: Q01DX009 (ip), vehicle: water) 106 % of control and 110 % of control; (dose: 4.0 mg/kg/injection, schedule: Q01DX001 (ip), vehicle: water) 110 % of control and 108 % of control; (dose: 4.0 mg/kg/injection, schedule: Q01DX009 (ip), vehicle: water) 109 % of control and 111 % of control; (dose: 8.0 mg/kg/injection, schedule: Q01DX001 (ip), vehicle: water) 119 % of control and 109 % of control and 115 % of control; (dose: 8.0 mg/kg/injection, schedule: Q01DX009 (ip), vehicle: water) 122 % of control. Besides, the T/C was 122 % of control and 112 % of control and 116 % of control (dose: 16.0 mg/kg/injection, schedule: Q01DX001 (ip), vehicle: water); 122 % of control and 115 % of control and 119 % of control (dose: 32.0 mg/kg/injection, schedule: Q01DX001 (ip), vehicle: water).

As to `C/C=C(\C)C(C)(C#N)Nc1ccccc1` (centres undefined), the T/C under setting [6] is 90 % of control.

With `N=C(N)SCC(=O)n1ccc(=O)n(C(=O)CSC(=N)N)c1=O`, the T/C reads like this: (dose: 100.0 mg/kg/injection, schedule: Q04DX002 (ip), vehicle: saline) 100 % of control; (dose: 200.0 mg/kg/injection, schedule: Q04DX002 (ip), vehicle: saline) 100 % of control; (dose: 400.0 mg/kg/injection, schedule: Q04DX002 (ip), vehicle: saline) 96 % of control.

For the compound `CCOC(=O)c1ccc(-n2c(C)nc3ccc(Br)cc3c2=O)cc1`, the T/C was 98 % of control (dose: 60.0 mg/kg/injection, schedule: Q01DX005 (ip), vehicle: saline with Tween-80); 95 % of control (dose: 120.0 mg/kg/injection, schedule: Q01DX005 (ip), vehicle: saline with Tween-80); 100 % of control (dose: 240.0 mg/kg/injection, schedule: Q01DX005 (ip), vehicle: saline with Tween-80).

With `C/C(=N\NC(=S)N(C)C)c1ccccn1`, for the setting “dose: 6.25 mg/kg/injection, schedule: Q01DX009 (ip), vehicle: saline with Tween-80”, the T/C is 100 % of control.

For the compound `COC1C(=O)OC(=O)C1OC` (centres undefined), the T/C by setting is: under setting [3], 109 % of control and 117 % of control; under setting [4], 102 % of control and 117 % of control; under setting [5], 100 % of control and 109 % of control and 90 % of control.

`COC(=O)Nc1c2ccccc2nc2c1c(C)c(C)c1ccccc12`: the T/C (dose: 100.0 mg/kg/injection, schedule: Q01DX001 (ip), vehicle: saline with Tween-80) is 88 % of control; the T/C (dose: 200.0 mg/kg/injection, schedule: Q01DX001 (ip), vehicle: saline with Tween-80) was 88 % of control; the T/C (dose: 400.0 mg/kg/injection, schedule: Q01DX001 (ip), vehicle: saline with Tween-80) was 95 % of control.
